Tested on: C-iPS EC
Assay: GDNF ELISA in conditioned media from control iPS-derived ECs
Format: cell-based, human
Conditions: 2 ng/ml FGF-2
Protocol: Testis, lung, or liver ECs were plated (10,000 cells ml^−1) on 12 well dishes coated with 0.1% gelatin and cultured for 24 hours. Conditioned media was harvested at 24 and 48 hours after FGF-2 (2 ng ml^−1, 20 ng ml^−1 and 50 ng ml^−1) treatment and analyzed by ELISA for GDNF (Promega GDNF Emax immunoassay system, #G7621) following the manufacturer's instruction. Statistics was analyzed using Graph Pad Prism. For quantification of Gdnf mRNA, total RNA was isolated from the cells using Direct-zol RNA MiniPrep (Zymo Research) and reverse transcribed using High Capacity cDNA Reverse Transcription Kit (Appliedbiosystems), according to the manufacturer's instructions. All gene expression levels were normalized to GAPDH mRNA levels.
To generate iPSC lines, either human fibroblasts/stromal cells were transduced with pMXs-based retroviral supernatant with human OCT4, SOX2, KLF4, or MYC as described^30, or mononuclear cells were infected with pHage2-CMV-RTTA-W and pHage-Tet-hSTEMMCA-loxP virus as described^31. All cells were culture on 0.1% gelatin-coated dishes in human endothelial cell medium (Lonza; EGM®-MV Bulletkit) with 50 ng ml^−1 additional VEGF. 500,000 disaggregated single embryonic bodies from human iPSCs were cultured for 48 hours. Non-adherent cells were gently removed and adherent cells were cultured for 1-2 passages. […]

fibroblast growth factor-2 [FGF-2] was tested, and the “GDNF production after FGF2 treatment” value was “stimulated robust GDNF production”.

— patent US20210386792A1, “A METHOD FOR INCREASING POPULATION OF SPERMATOGONIAL STEM CELLS” (priority 2018, published 2021)
